Experimental data: paper PMC11480411, “Mucosal sugars delineate pyrazine vs pyrazinone autoinducer signaling in Klebsiella oxytoca” (Nature Communications, 2024)

Columns and labels:
Assay in all cases: PRESTO-Tango GPCR screen
Type in all cases: cell-based
Conditions in all cases: 100 µM
S1PR3 = molecular target: T1, S1PR3 (Homo sapiens, UniProt Q99500)
T1 construct: purchased PRESTO-Tango GPCR kit (Roth lab / Addgene)
In short: (§1)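 Screening was done at 100 μM final ligand concentration, applied for 20 h to HTLA cells transiently expressing the individual GPCR-Tango construct. Readout: Bright-Glo luminescence, normalised as fold of PBS control.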

GPR149 = molecular target: T2, GPR149 (Homo sapiens, UniProt Q86SP6)
T2 construct: purchased PRESTO-Tango GPCR kit (Roth lab / Addgene)
In short: as §1

GPR182 = molecular target: T3, GPR182 (Homo sapiens, UniProt O15218)
T3 construct: purchased PRESTO-Tango GPCR kit (Roth lab / Addgene)
In short: as §1

OPRM1 = molecular target: T4, OPRM1 (Homo sapiens, UniProt P35372)
T4 construct: purchased PRESTO-Tango GPCR kit (Roth lab / Addgene)
In short: as §1

CCR4 = molecular target: T5, CCR4 (Homo sapiens, UniProt P51679)
T5 construct: purchased PRESTO-Tango GPCR kit (Roth lab / Addgene)
In short: as §1

DRD2 = molecular target: T6, DRD2 (Homo sapiens, UniProt P14416)
T6 construct: purchased PRESTO-Tango GPCR kit (Roth lab / Addgene)
In short: as §1

F2RL2 = molecular target: T7, F2RL2 (Homo sapiens, UniProt O00254)
T7 construct: purchased PRESTO-Tango GPCR kit (Roth lab / Addgene)
In short: as §1

GRM8 = molecular target: T8, GRM8 (Homo sapiens, UniProt O00222)
T8 construct: purchased PRESTO-Tango GPCR kit (Roth lab / Addgene)
T8 sequence (O00222 34-908): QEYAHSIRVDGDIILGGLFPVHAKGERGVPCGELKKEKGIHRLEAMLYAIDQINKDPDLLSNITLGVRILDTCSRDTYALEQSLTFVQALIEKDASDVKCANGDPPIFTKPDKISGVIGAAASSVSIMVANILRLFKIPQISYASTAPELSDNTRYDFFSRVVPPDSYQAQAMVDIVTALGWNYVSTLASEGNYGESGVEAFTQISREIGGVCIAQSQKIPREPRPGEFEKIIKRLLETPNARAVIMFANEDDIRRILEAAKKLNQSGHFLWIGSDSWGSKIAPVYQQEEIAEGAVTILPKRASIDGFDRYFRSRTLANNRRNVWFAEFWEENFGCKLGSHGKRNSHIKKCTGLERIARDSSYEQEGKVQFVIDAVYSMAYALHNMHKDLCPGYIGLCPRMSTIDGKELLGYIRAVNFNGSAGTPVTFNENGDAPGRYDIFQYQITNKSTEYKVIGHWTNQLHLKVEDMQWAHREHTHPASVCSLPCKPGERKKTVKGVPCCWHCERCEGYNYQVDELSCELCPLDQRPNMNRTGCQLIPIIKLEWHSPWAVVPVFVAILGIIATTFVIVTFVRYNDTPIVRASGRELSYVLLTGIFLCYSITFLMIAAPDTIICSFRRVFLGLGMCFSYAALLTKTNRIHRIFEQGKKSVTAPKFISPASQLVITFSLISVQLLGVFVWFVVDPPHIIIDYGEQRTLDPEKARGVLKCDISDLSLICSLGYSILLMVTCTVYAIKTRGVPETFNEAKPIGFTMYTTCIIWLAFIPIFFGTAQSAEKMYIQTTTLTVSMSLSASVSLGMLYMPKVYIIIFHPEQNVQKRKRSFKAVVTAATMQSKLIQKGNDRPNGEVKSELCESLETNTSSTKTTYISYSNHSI
In short: as §1

AGTR1 = molecular target: T9, AGTR1 (Homo sapiens, UniProt P30556)
T9 construct: purchased PRESTO-Tango GPCR kit (Roth lab / Addgene)
In short: as §1

GPR61 = molecular target: T10, GPR61 (Homo sapiens, UniProt Q9BZJ8)
T10 construct: purchased PRESTO-Tango GPCR kit (Roth lab / Addgene)
In short: as §1

MTNR1B = molecular target: T11, MTNR1B (Homo sapiens, UniProt P49286)
T11 construct: purchased PRESTO-Tango GPCR kit (Roth lab / Addgene)
In short: as §1

NTSR2 = molecular target: T12, NTSR2 (Homo sapiens, UniProt O95665)
T12 construct: purchased PRESTO-Tango GPCR kit (Roth lab / Addgene)
T12 sequence (O95665 whole entry): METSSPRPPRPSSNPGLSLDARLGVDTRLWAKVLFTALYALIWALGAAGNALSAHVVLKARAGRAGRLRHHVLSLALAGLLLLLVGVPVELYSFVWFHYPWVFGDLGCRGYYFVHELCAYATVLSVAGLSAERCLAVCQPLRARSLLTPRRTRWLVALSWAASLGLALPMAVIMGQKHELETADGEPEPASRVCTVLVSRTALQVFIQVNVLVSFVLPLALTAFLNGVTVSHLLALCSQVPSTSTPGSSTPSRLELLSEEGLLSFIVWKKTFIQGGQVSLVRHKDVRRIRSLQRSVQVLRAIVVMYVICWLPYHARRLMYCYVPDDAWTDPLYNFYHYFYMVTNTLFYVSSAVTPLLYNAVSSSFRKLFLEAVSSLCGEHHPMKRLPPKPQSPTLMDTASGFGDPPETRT
In short: as §1

OXER1 = molecular target: T13, OXER1 (Homo sapiens, UniProt Q8TDS5)
T13 construct: purchased PRESTO-Tango GPCR kit (Roth lab / Addgene)
In short: as §1

AVPR1A = molecular target: T14, AVPR1A (Homo sapiens, UniProt P37288)
T14 construct: purchased PRESTO-Tango GPCR kit (Roth lab / Addgene)
In short: as §1

LHCGR = molecular target: T15, LHCGR (Homo sapiens, UniProt P22888)
T15 construct: purchased PRESTO-Tango GPCR kit (Roth lab / Addgene)
T15 sequence (P22888 27-699): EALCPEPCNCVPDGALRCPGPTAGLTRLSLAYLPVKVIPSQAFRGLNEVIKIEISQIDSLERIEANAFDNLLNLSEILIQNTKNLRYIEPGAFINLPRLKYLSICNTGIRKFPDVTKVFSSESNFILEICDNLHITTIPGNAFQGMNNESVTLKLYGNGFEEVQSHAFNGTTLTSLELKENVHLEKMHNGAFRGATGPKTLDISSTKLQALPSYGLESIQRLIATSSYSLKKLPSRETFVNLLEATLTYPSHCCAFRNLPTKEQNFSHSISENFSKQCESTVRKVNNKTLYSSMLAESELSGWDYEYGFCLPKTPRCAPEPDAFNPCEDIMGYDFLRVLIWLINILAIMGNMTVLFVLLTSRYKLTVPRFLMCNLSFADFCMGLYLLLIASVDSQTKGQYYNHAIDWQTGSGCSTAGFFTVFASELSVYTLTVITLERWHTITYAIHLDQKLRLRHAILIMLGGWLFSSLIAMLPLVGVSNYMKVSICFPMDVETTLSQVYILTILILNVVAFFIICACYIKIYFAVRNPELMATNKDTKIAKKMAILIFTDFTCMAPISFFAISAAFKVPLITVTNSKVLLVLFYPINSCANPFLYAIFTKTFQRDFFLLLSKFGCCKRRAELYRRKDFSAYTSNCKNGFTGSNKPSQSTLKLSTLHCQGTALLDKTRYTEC
In short: as §1

C5A = molecular target: T16, C5A (Homo sapiens, UniProt P21730)
T16 construct: purchased PRESTO-Tango GPCR kit (Roth lab / Addgene)
T16 sequence (P21730 whole entry): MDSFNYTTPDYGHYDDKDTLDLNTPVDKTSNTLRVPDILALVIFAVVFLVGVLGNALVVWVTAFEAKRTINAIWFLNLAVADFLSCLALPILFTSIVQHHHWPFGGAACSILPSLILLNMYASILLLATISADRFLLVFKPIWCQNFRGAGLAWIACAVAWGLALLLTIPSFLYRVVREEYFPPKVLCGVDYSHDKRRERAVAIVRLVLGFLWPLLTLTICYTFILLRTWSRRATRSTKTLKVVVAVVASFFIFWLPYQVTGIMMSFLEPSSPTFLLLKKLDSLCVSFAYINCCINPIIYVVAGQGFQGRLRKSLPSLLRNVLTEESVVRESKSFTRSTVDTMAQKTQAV
In short: as §1

GPR21 = molecular target: T17, GPR21 (Homo sapiens, UniProt Q99679)
T17 construct: purchased PRESTO-Tango GPCR kit (Roth lab / Addgene)
In short: as §1

GPR144 = molecular target: T18, GPR144 (Homo sapiens, UniProt Q7Z7M1)
T18 construct: purchased PRESTO-Tango GPCR kit (Roth lab / Addgene)
In short: as §1

GPR6 = molecular target: T19, GPR6 (Homo sapiens, UniProt P46095)
T19 construct: purchased PRESTO-Tango GPCR kit (Roth lab / Addgene)
T19 sequence (P46095 whole entry): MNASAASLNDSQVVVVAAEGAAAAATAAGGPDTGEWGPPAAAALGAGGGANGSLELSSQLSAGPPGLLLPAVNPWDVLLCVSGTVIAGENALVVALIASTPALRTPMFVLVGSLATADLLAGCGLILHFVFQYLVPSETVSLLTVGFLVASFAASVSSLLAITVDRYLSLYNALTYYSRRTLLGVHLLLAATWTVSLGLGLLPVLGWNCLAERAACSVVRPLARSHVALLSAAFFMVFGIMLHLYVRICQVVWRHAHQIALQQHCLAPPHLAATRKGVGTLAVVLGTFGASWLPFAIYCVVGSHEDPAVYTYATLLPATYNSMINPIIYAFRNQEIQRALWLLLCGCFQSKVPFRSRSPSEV
In short: as §1

HTR4 = molecular target: T20, HTR4 (Homo sapiens, UniProt Q13639)
T20 construct: purchased PRESTO-Tango GPCR kit (Roth lab / Addgene)
In short: as §1

HCA1 = molecular target: T21, HCA1 (Homo sapiens, UniProt Q9BXC0)
T21 construct: purchased PRESTO-Tango GPCR kit (Roth lab / Addgene)
In short: as §1

MRGPRX2 = molecular target: T22, MRGPRX2 (Homo sapiens, UniProt Q96LB1)
T22 construct: purchased PRESTO-Tango GPCR kit (Roth lab / Addgene)
In short: as §1

GPR37L1 = molecular target: T23, GPR37L1 (Homo sapiens, UniProt O60883)
T23 construct: purchased PRESTO-Tango GPCR kit (Roth lab / Addgene)
In short: as §1

CHRM1 = molecular target: T24, CHRM1 (Homo sapiens, UniProt P11229)
T24 construct: purchased PRESTO-Tango GPCR kit (Roth lab / Addgene)
T24 sequence (P11229 whole entry): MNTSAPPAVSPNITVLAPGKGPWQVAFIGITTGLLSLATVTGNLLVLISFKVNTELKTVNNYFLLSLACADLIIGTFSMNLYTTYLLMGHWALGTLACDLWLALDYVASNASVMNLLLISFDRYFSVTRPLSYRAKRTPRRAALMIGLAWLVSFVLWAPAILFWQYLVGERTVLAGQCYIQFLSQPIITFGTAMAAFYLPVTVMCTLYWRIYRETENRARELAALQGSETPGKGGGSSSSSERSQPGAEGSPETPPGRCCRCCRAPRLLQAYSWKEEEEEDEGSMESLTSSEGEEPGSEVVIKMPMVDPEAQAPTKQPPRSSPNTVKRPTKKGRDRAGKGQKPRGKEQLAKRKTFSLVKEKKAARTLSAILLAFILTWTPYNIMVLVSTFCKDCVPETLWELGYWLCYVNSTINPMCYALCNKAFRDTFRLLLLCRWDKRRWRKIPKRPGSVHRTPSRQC
In short: as §1

HCTR1 = molecular target: T25, HCTR1 (Homo sapiens, UniProt O43613)
T25 construct: purchased PRESTO-Tango GPCR kit (Roth lab / Addgene)
In short: as §1

GPR114 = molecular target: T26, GPR114 (Homo sapiens, UniProt Q8IZF4)
T26 construct: purchased PRESTO-Tango GPCR kit (Roth lab / Addgene)
In short: as §1

GPBA = molecular target: T27, GPBA (Homo sapiens, UniProt Q8TDU6)
T27 construct: purchased PRESTO-Tango GPCR kit (Roth lab / Addgene)
In short: as §1

GHSR = molecular target: T28, GHSR (Homo sapiens, UniProt Q92847)
T28 construct: purchased PRESTO-Tango GPCR kit (Roth lab / Addgene)
In short: as §1

CCR5 = molecular target: T29, CCR5 (Homo sapiens, UniProt P51681)
T29 construct: purchased PRESTO-Tango GPCR kit (Roth lab / Addgene)
T29 sequence (P51681 whole entry): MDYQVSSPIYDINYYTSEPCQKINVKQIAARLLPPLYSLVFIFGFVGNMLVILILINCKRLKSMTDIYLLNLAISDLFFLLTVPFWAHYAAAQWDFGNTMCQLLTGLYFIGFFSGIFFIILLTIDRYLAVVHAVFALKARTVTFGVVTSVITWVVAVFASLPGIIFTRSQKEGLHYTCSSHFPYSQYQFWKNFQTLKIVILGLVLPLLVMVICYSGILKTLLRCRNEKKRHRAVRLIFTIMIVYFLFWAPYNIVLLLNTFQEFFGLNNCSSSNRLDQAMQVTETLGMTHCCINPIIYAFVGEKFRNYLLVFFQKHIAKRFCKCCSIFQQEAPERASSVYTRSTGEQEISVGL
In short: as §1

GPR148 = molecular target: T30, GPR148 (Homo sapiens, UniProt Q8TDV2)
T30 construct: purchased PRESTO-Tango GPCR kit (Roth lab / Addgene)
In short: as §1

GPR68 = molecular target: T31, GPR68 (Homo sapiens, UniProt Q15743)
T31 construct: purchased PRESTO-Tango GPCR kit (Roth lab / Addgene)
In short: as §1

MC5R = molecular target: T32, MC5R (Homo sapiens, UniProt P33032)
T32 construct: purchased PRESTO-Tango GPCR kit (Roth lab / Addgene)
In short: as §1

PTH1R = molecular target: T33, PTH1R (Homo sapiens, UniProt Q03431)
T33 construct: purchased PRESTO-Tango GPCR kit (Roth lab / Addgene)
T33 sequence (Q03431 27-593): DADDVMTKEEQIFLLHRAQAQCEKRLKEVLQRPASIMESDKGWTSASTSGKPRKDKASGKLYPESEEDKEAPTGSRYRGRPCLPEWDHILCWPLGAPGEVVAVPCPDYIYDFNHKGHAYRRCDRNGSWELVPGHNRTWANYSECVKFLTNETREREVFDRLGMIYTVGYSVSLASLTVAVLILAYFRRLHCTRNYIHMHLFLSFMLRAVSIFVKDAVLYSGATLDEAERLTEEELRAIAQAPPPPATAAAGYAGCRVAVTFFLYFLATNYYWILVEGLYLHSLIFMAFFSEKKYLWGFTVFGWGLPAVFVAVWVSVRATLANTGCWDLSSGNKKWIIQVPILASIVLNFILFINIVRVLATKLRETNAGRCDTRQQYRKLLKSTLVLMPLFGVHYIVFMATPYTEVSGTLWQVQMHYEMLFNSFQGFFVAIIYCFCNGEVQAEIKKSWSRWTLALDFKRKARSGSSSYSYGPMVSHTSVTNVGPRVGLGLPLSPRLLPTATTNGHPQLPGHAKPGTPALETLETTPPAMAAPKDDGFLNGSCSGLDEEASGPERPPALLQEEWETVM
In short: as §1

BDKBR2 = molecular target: T34, BDKBR2 (Homo sapiens, UniProt P30411)
T34 construct: purchased PRESTO-Tango GPCR kit (Roth lab / Addgene)
In short: as §1

RXFP2 = molecular target: T35, RXFP2 (Homo sapiens, UniProt Q8WXD0)
T35 construct: purchased PRESTO-Tango GPCR kit (Roth lab / Addgene)
T35 sequence (Q8WXD0 whole entry): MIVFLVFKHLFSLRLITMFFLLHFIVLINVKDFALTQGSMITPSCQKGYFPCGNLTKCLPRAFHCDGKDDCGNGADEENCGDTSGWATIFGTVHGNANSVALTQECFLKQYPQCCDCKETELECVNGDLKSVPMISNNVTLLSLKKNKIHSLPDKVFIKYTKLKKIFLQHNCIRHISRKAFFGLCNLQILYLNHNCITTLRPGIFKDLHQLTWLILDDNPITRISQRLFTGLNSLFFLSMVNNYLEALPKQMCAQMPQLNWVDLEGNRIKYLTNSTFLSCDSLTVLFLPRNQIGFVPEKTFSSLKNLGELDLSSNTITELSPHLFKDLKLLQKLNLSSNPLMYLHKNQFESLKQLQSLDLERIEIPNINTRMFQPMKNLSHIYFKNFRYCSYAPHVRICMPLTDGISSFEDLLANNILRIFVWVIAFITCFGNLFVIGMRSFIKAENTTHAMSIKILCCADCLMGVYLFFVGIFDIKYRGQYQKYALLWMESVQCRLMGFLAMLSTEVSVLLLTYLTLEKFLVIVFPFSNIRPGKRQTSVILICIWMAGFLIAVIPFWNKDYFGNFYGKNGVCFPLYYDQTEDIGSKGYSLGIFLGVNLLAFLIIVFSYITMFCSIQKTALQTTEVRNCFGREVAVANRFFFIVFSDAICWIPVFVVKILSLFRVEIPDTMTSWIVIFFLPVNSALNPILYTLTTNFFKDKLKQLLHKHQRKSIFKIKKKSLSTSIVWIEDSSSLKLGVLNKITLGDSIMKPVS
In short: as §1

CXCR6 = molecular target: T36, CXCR6 (Homo sapiens, UniProt O00574)
T36 construct: purchased PRESTO-Tango GPCR kit (Roth lab / Addgene)
In short: as §1

Row | SMILES | GPCR activation (heatmap value) (S1PR3) | GPCR activation (heatmap value) (GPR149) | GPCR activation (heatmap value) (GPR182) | GPCR activation (heatmap value) (OPRM1) | GPCR activation (heatmap value) (CCR4) | GPCR activation (heatmap value) (DRD2) | GPCR activation (heatmap value) (F2RL2) | GPCR activation (heatmap value) (GRM8) | GPCR activation (heatmap value) (AGTR1) | GPCR activation (heatmap value) (GPR61) | GPCR activation (heatmap value) (MTNR1B) | GPCR activation (heatmap value) (NTSR2) | GPCR activation (heatmap value) (OXER1) | GPCR activation (heatmap value) (AVPR1A) | GPCR activation (heatmap value) (LHCGR) | GPCR activation (heatmap value) (C5A) | GPCR activation (heatmap value) (GPR21) | GPCR activation (heatmap value) (GPR144) | GPCR activation (heatmap value) (GPR6) | GPCR activation (heatmap value) (HTR4) | other results
1 | CC(C)Cc1ncc(CCCCNC(=N)N)[nH]c1=O [3-Homo] | -0.09323 | 0.01685 | -0.244 | 0.127 | 0.4296 | -0.9836 | -0.002642 | 0.556 | 0.01764 | 1.164 | 0.08839 | -0.1953 | 0.0005851 | 0.8531 | 0.1782 | 0.3516 | 0.4357 | -0.2529 | 0.1759 | -0.1279 | GPCR activation (heatmap value) (HCA1): -0.6134; GPCR activation (heatmap value) (MRGPRX2): -0.6668; GPCR activation (heatmap value) (GPR37L1): 0.03037; GPCR activation (heatmap value) (CHRM1): -1.546; GPCR activation (heatmap value) (HCTR1): 0.1163; GPCR activation (heatmap value) (GPR114): 0.07141; GPCR activation (heatmap value) (GPBA): -0.06085; GPCR activation (heatmap value) (GHSR): 0.75; GPCR activation (heatmap value) (CCR5): 0.4723; GPCR activation (heatmap value) (GPR148): 0.1551; GPCR activation (heatmap value) (GPR68): -0.3643; GPCR activation (heatmap value) (MC5R): 0.4155; GPCR activation (heatmap value) (PTH1R): -0.1159; GPCR activation (heatmap value) (BDKBR2): -0.09391; GPCR activation (heatmap value) (RXFP2): 0.2908; GPCR activation (heatmap value) (CXCR6): 1.014
2 | CC(C)Cc1ncc(CCCNC(=N)N)[nH]c1=O [compound 3] | -0.834 | 0.9394 | -0.4224 | 1.469 | -0.299 | 0.05842 | 0.07678 | -0.7817 | 0.0619 | 0.4932 | -0.5682 | -2.304 | -0.9579 | 0.9724 | 0.1147 | 0.1076 | 1.034 | 0.6653 | -1.168 | -1.236 | GPCR activation (heatmap value) (HCA1): 0.05882; GPCR activation (heatmap value) (MRGPRX2): 0.1651; GPCR activation (heatmap value) (GPR37L1): -0.6695; GPCR activation (heatmap value) (CHRM1): -1.184; GPCR activation (heatmap value) (HCTR1): -0.3941; GPCR activation (heatmap value) (GPR114): 0.003235; GPCR activation (heatmap value) (GPBA): -0.136; GPCR activation (heatmap value) (GHSR): -0.1187; GPCR activation (heatmap value) (CCR5): -0.6917; GPCR activation (heatmap value) (GPR148): 0.6105; GPCR activation (heatmap value) (GPR68): 0.3673; GPCR activation (heatmap value) (MC5R): -0.2243; GPCR activation (heatmap value) (PTH1R): 0.5796; GPCR activation (heatmap value) (BDKBR2): -0.1686; GPCR activation (heatmap value) (RXFP2): -0.001018; GPCR activation (heatmap value) (CXCR6): 0.09324
